Consider one compound from patent publication EP4600261A1, “KERATIN YK93-2, AND PREPARATION METHOD THEREFOR, PHARMACEUTICAL COMPOSITION THEREOF AND USE THEREOF” (INSTITUTE OF MATERIA MEDICA, CHINESE ACADEMY OF MEDICAL …, priority 2022, dated 2024).

In the experiment the test system is mouse pain model. Briefly: mouse pain model, acetic acid-induced writhing. It counts as in vivo, Male Kunming mice. As to conditions: Tramadol Hydrochloride 50mg/kg, 1% acetic acid intraperitoneally, writhing within 15 minutes. On the procedure:
• Animals: Male Kunming mice; • Drugs: Tramadol Hydrochloride Sustained Release Tablets, Glacial acetic acid, YK93-2; • Instruments: electronic balance, timer
• Normal control group; • Positive control group: Tramadol Hydrochloride group; • Protein YK93-2, (2g/kg) group.
Mice in the YK93-2 (2g/kg) group were administered by gavage, while mice in the model group were given an equal volume of CMC-Na once a day for 7 consecutive days. 30 minutes after the last administration, 1% acetic acid was administered intraperitoneally, and the writhing times of mice within 15 minutes was recorded, and the inhibition rate of drug-induced writhing reaction was calculated. The observation criteria were concave abdominal cavity, extended hind limbs, and raised buttocks.
The inhibition rate was calculated by (Mean number of writhing reactions in the normal control group - Mean number of writhing reactions in the treatment group)/Mean number of writhing reactions in the normal control group * 100%.
For orientation: An intraperitoneal irritant provokes the stretching counted in writhing tests.

Where a name gives a salt, the structure may show the parent alone.

`COc1cccc(C2(O)CCCCC2CN(C)C)c1` (stereo not shown) [Tramadol Hydrochloride]: the Number of writhing entry was “significantly reduced”.
